Measurements taken from ChEMBL document CHEMBL3813683, “Design, synthesis and anti-cancer activity evaluation of podophyllotoxin-norcantharidin hybrid drugs” (Bioorg Med Chem Lett, 2016).

Assays:
A549 = assay: Cytotoxicity against human A549 cells after 36 hrs by MTT assay; format: functional, cell-based; details: A549, 36 h
MCF7 = assay: Cytotoxicity against human MCF7 cells after 36 hrs by MTT assay; format: functional, cell-based; details: MCF7, 36 h
[1] = Cytotoxicity against HEK293T cells after 36 hrs by MTT assay; format: cell-based; details: Homo sapiens, HEK-293T
HeLa = assay: Cytotoxicity against human HeLa cells after 36 hrs by MTT assay; format: functional, cell-based

Q: What does the source list for `COc1cc(C2c3cc4c(cc3[C@H](OC(=O)[C@@H](C)N3C(=O)c5ccccc5C3=O)[C@H]3COC(=O)[C@H]23)OCO4)cc(OC)c1OC` (stereo not given in full)?
A: IC50 (A549): 8.08 µM; IC50 (MCF7): 8.29 µM; IC50 [1]: 59.3 µM; IC50 (HeLa): 11.8 µM

Q: What does the source list for `COc1cc(C2c3cc4c(cc3[C@H](OC(=O)[C@@H](C)N3C(=O)C5CCCCC5C3=O)[C@H]3COC(=O)[C@H]23)OCO4)cc(OC)c1OC` (stereo not given in full)?
A: IC50 (A549): 2.11 µM; IC50 (MCF7): 2.51 µM; IC50 [1]: 54.5 µM; IC50 (HeLa): 2.15 µM

Q: Which results are given for `COc1cc(C2c3cc4c(cc3[C@H](OC(=O)[C@@H](C)N3C(=O)C5C6CCC(O6)C5C3=O)[C@H]3COC(=O)[C@H]23)OCO4)cc(OC)c1OC` (stereo not given in full)?
A: IC50 (A549): 2 µM; IC50 (MCF7): 1.17 µM; IC50 [1]: 80.8 µM; IC50 (HeLa): 1.14 µM

Q: Which IC50 (A549) does the source give for `COc1cc(C2c3cc4c(cc3[C@H](OC(=O)[C@H](Cc3ccccc3)N3C(=O)C5C6CCC(O6)C5C3=O)[C@H]3COC(=O)[C@H]23)OCO4)cc(OC)c1OC` (stereo not given in full) here?
A: The IC50 was 3.69 µM.

Q: What about the IC50 (MCF7) of the same compound?
A: Its IC50 is 6.53 µM.

Q: What about the IC50 [1] of the same compound?
A: The IC50 was 70.3 µM.

Q: What about the IC50 (HeLa) of the same compound?
A: The IC50 was 8.79 µM.

Q: For `COc1cc(C2c3cc4c(cc3[C@H](OC(=O)C(C)N3C(=O)C5C6CCC(O6)C5C3=O)[C@H]3COC(=O)[C@H]23)OCO4)cc(OC)c1OC` (stereo not given in full), which IC50 (A549) is on record?
A: The IC50 was 1.91 µM.

Q: And the IC50 (MCF7)?
A: Its IC50 is 1.74 µM.

Q: And the IC50 [1]?
A: The IC50 was 53.2 µM.

Q: What about the IC50 (HeLa) of the same compound?
A: The IC50 was 1.86 µM.

Q: Which IC50 (A549) does the source give for `COc1cc(C2c3cc4c(cc3[C@H](OC(=O)C(C)N3C(=O)c5ccccc5C3=O)[C@H]3COC(=O)[C@H]23)OCO4)cc(OC)c1OC` (stereo not given in full) here?
A: The IC50 was 5.37 µM.

Q: And the IC50 (MCF7)?
A: Its IC50 is 16.8 µM.

Q: And the IC50 [1]?
A: Its IC50 is 51.3 µM.

Q: And the IC50 (HeLa)?
A: Its IC50 is 17.2 µM.

Q: Which IC50 (A549) does the source give for `COc1cc(C2c3cc4c(cc3[C@H](OC(=O)[C@H](C)N3C(=O)C5C6CCC(O6)C5C3=O)[C@H]3COC(=O)[C@H]23)OCO4)cc(OC)c1OC` (stereo not given in full) here?
A: The IC50 was 1.18 µM.

Q: What about the IC50 (MCF7) of the same compound?
A: Its IC50 is 1.22 µM.

Q: What about the IC50 [1] of the same compound?
A: Its IC50 is 64.2 µM.

Q: What about the IC50 (HeLa) of the same compound?
A: The IC50 was 3.02 µM.

Q: Which IC50 (A549) does the source give for `COc1cc(C2c3cc4c(cc3[C@H](OC(=O)C(Cc3ccccc3)N3C(=O)c5ccccc5C3=O)[C@H]3COC(=O)[C@H]23)OCO4)cc(OC)c1OC` (stereo not given in full) here?
A: Its IC50 is 4.16 µM.

Q: What about the IC50 (MCF7) of the same compound?
A: The IC50 was 6.41 µM.

Q: And the IC50 [1]?
A: The IC50 was 65.9 µM.

Q: And the IC50 (HeLa)?
A: Its IC50 is 7.12 µM.

Q: For `COc1cc([C@@H]2c3cc4c(cc3[C@@H](O[C@@H]3O[C@@H]5CO[C@@H](C)O[C@H]5[C@H](O)[C@H]3O)[C@H]3COC(=O)[C@H]23)OCO4)cc(OC)c1O` [ETOPOSIDE], which IC50 (A549) is on record?
A: Its IC50 is 8.01 µM.

Q: And the IC50 (MCF7)?
A: Its IC50 is 1.74 µM.

Q: And the IC50 [1]?
A: The IC50 was 11.5 µM.

Q: And the IC50 (HeLa)?
A: Its IC50 is 4.39 µM.

Q: Which results are given for `COc1cc(C2c3cc4c(cc3[C@H](OC(=O)[C@H](Cc3ccccc3)N3C(=O)c5ccccc5C3=O)[C@H]3COC(=O)[C@H]23)OCO4)cc(OC)c1OC` (stereo not given in full)?
A: IC50 (A549): 8.11 µM; IC50 (MCF7): 10.1 µM; IC50 [1]: 54.8 µM; IC50 (HeLa): 12.5 µM
